# “And” between values parts separate entries of the source, which are not always exact repeats. Identical values can stand only once.
# Legend:
# Format in all cases: binding
# chloramphenicol Mcab = assay: Competitive chemiluminescence immunoassay for chloramphenicol (Embodiment 5)
# Protocol: • 1) Preparation of the chloramphenicol microplate: add chloramphenicol-BSA conjugate into the ELISA plate, 100 μL per well, overnight at 4° C., wash 3 times with a separation time of 3 minutes each, pat dry; add 5% skimmed milk powder 130 μL per well, block for 1 hour at 37° C., pat dry; wash 3 times with wash buffer, pat dry, leave for reservation. Prepare the chloramphenicol standard solutions with wash buffer: 0 ppb, 0.01 ppb, 0.03 ppb, 0.09 ppb, 0.27 ppb, 0.81 ppb. • 2) Mix the standard and the chloramphenicol Mcab in equal volumes, incubate for 20 minutes at 37° C.; then transfer the reaction product into chloramphenicol microplate; • Group 1: transfer the reaction product into ELISA plate, 20 μL/well, reaction for 1 minute at 37° C., discard liquid in the well, repeat the operation 5 times, and the pre-reaction product added to each well is total 100 μL; • Group 2: one-time transfer the whole 100 μL reaction product into the chloramphenicol microplate, reacting for 20 minute at 37° C.; • 3) Wash 3 times; add HRP labeled secondary antibody, 100 μL per well, react for 45 minutes at 37° C.; wash 5 times; after adding luminous substrate, chemiluminescence measuring instrument is applied to measure the luminous intensity.
# Ractopamine antibody = assay: Competitive ELISA for Ractopamine (Embodiment 4)
# Protocol: Preparing the Ractopamine microplate: Ractopamine coating antigen is added to the microplate, 100 μL/well, react for 2 hours at 37° C.; discard the liquid in the well; add blocking solution into the microplate, 100 μL/well, blocking for 1 hour at 37° C.; wash 3 times with wash buffer, leave for reservation. Prepare Ractopamine standards with concentrations of 0 ppb, 0.05 ppb, 0.15 ppb, 0.45 ppb, 1.35 ppb, 4.05 ppb respectively, with wash buffer.
# Group 1: add 60 μL the standard and the Ractopamine antibody respectively into a new microplate, pre-react for 20 minutes; take 20 μL mixture solution of antibody and standard into the Ractopamine microplate, react for 1 minute, discard the liquid in the well, and pat dry on absorbent paper, then add 20 μL mixture solution and react for 1 minute, repeat for 5 times altogether, the pre-reaction product added into each well is 100 μL altogether; add HRP labeled secondary antibody, 100 μL per well, react for 45 minutes at 37° C.; wash the plate; add chromogenic agent 100 μL, react for 15 minutes at 37° C.; and finally add 50 μL termination solution, then measure the OD450.
# Group 2: add 60 μL the standard and the Ractopamine antibody respectively into a new microplate, pre-react for 20 minutes; take 100 μL mixture solution of antibody and standard into the Ractopamine microplate, react for 30 minutes, discard the liquid in the well, and pat dry on absorbent paper; wash the plate; add HRP labeled secondary antibody, 100 μL per well, react for 45 minutes at 37° C., wash the plate; add chromogenic agent 100 μL, react for 15 minutes at 37° C.; and finally add 50 μL termination solution, then measure the OD450.
# ciprofloxacin antibody [1] = assay: Competitive ELISA for ciprofloxacin, different re-reaction times (Embodiment 2)
# Protocol: (§1) Coat the ELISA plate with ciprofloxacin BSA conjugate, 1 μg/mL, 100 μL per well, blocking overnight at 4° C. Then block with 3% skimmed milk powder the following day. Prepare ciprofloxacin standards, 0 ppb, 1 ppb, 5 ppb, and 10 ppb with wash buffer.
# The experiment is divided into 5 groups, each group takes 100 μL standard and 100 μL ciprofloxacin antibody, pre-react for 20 minutes at 37° C. in the microplates, then add to ciprofloxacin ELISA plates:
# Take 120 μL pre-reaction product to the ciprofloxacin ELISA plates from group 1, group 2, group 3 and group 4, and resume reacting for 30 minutes, 20 minutes, 10 minutes and 5 minutes respectively; wash the plate; add HRP labeled secondary antibody, react for 30 minutes at 37° C., wash the plate; add chromogenic agent 100 μL, react for 15 minutes at 37° C.; and finally add 50 μL termination solution, then measure the OD450.
# Take 20 μL pre-reaction solution of antibody and standard from group 5 and add to the ciprofloxacin ELISA plate, react for 1 minute, discard the liquid in the well, and pat dry on absorbent paper, then add 20 μL mixture solution and react for 1 minute, repeat for 6 times altogether; wash the plate; add HRP labeled secondary antibody, react for 30 minutes at 37° C., wash the plate; add chromogenic agent 100 μL, react for 15 minutes at 37° C.; and finally add 50 μL termination solution, then measure the OD450.
# ciprofloxacin antibody [2] = assay: Competitive ELISA for ciprofloxacin, different pre-reaction times (Embodiment 3); details: re-reaction 1 min, 6 times
# Protocol: as §1
# The experiment is divided into 4 groups, each group takes 100 μL standard and 100 μL ciprofloxacin antibody, pre-incubate for 5 minutes, 10 minutes, 15 minutes and 20 minutes at 37° C. in the microplates respectively, then take 20 μL mixture solutions of antibody and standard and add to the ciprofloxacin ELISA plate, react for 1 minute, discard the liquid in the well, and pat dry on absorbent paper, then add 20 μL mixture solution and react for 1 minute, repeat for a total 6 times; wash the plate; add HRP labeled secondary antibody, react for 30 minutes at 37° C., wash the plate; add chromogenic agent 100 μL, react for 15 minutes at 37° C.; and finally add 50 μL termination solution, then measure the OD450.
# ciprofloxacin antibody [3] = assay: Competitive ELISA for ciprofloxacin, pre-reaction mode vs direct addition (Embodiment 1)
# Protocol: Coat the ELISA plate with ciprofloxacin BSA conjugate, 1 μg/mL, 100 μL per well, blocking overnight at 4° C. Then block with 3% skimmed milk powder the following day. Prepare ciprofloxacin standards, 0 ppb, 1 ppb, 3 ppb, 9 ppb, 27 ppb, 81 ppb with the wash buffer (PBST).
# The experiment is divided into two groups.
# Group 1: pre-incubate 60 μL standards and 60 μL diluted ciprofloxacin antibody for 20 minutes at 37° C.; then take 100 μL reaction product and add to the ELISA plate covering with ciprofloxacin conjugate, react for 30 minutes at 37° C.; wash the plate, add HRP labeled secondary antibody, react for 30 minutes at 37° C., wash the plate; add chromogenic agent 100 μL, react for 15 minutes at 37° C.; and finally add 50 μL termination solution, then measure the OD450 with a microplate reader.
# Group 2: add into the ELISA plate covering with ciprofloxacin conjugate with 50 μL standard and 50 μL antibody, in the sequence; react for 30 minutes at 37° C., wash the plate; add HRP labeled secondary antibody, react for 30 minutes at 37° C., wash the plate; add chromogenic agent 100 μL, react for 15 minutes at 37° C.; and finally add 50 μL termination solution, then measure OD450 with a microplate reader.
compound,measurement,setting,value
O=C(N[C@H](CO)[C@H](O)c1ccc([N+](=O)[O-])cc1)C(Cl)Cl [chloramphenicol],B/B0,"chloramphenicol Mcab; Group 1 (20 μL/well, 1 min, 5 times), chloramphenicol standard 0.01 ppb",0.88 and 0.89
same,B/B0,"chloramphenicol Mcab; Group 1 (20 μL/well, 1 min, 5 times), chloramphenicol standard 0.03 ppb",0.66 and 0.64
same,B/B0,"chloramphenicol Mcab; Group 1 (20 μL/well, 1 min, 5 times), chloramphenicol standard 0.09 ppb",0.49 and 0.48
same,B/B0,"chloramphenicol Mcab; Group 1 (20 μL/well, 1 min, 5 times), chloramphenicol standard 0.27 ppb",0.21 and 0.23
same,B/B0,"chloramphenicol Mcab; Group 1 (20 μL/well, 1 min, 5 times), chloramphenicol standard 0.81 ppb",0.11 and 0.17
same,B/B0,"chloramphenicol Mcab; Group 2 (one-time 100 μL, 20 min), chloramphenicol standard 0.01 ppb",0.96 and 0.94
same,B/B0,"chloramphenicol Mcab; Group 2 (one-time 100 μL, 20 min), chloramphenicol standard 0.03 ppb",0.88 and 0.89
same,B/B0,"chloramphenicol Mcab; Group 2 (one-time 100 μL, 20 min), chloramphenicol standard 0.09 ppb",0.69
same,B/B0,"chloramphenicol Mcab; Group 2 (one-time 100 μL, 20 min), chloramphenicol standard 0.27 ppb",0.46 and 0.48
same,B/B0,"chloramphenicol Mcab; Group 2 (one-time 100 μL, 20 min), chloramphenicol standard 0.81 ppb",0.28 and 0.27
O=C(O)c1cn(C2CC2)c2cc(N3CCNCC3)c(F)cc2c1=O [Ciprofloxacin],OD,"Ractopamine antibody; Group 1 (20 min pre-reaction; 20 μL, 1 min, 5 times), concentration 0.05 ppb",1.175
same,OD,"Ractopamine antibody; Group 1 (20 min pre-reaction; 20 μL, 1 min, 5 times), concentration 0.15 ppb",0.803
same,OD,"Ractopamine antibody; Group 1 (20 min pre-reaction; 20 μL, 1 min, 5 times), concentration 0.45 ppb",0.517
same,OD,"Ractopamine antibody; Group 1 (20 min pre-reaction; 20 μL, 1 min, 5 times), concentration 1.35 ppb",0.324
same,OD,"Ractopamine antibody; Group 1 (20 min pre-reaction; 20 μL, 1 min, 5 times), concentration 4.05 ppb",0.183
same,OD,"Ractopamine antibody; Group 2 (20 min pre-reaction; 100 μL, 30 min), concentration 0.05 ppb",1.584
same,OD,"Ractopamine antibody; Group 2 (20 min pre-reaction; 100 μL, 30 min), concentration 0.15 ppb",1.391
same,OD,"Ractopamine antibody; Group 2 (20 min pre-reaction; 100 μL, 30 min), concentration 0.45 ppb",1.003
same,OD,"Ractopamine antibody; Group 2 (20 min pre-reaction; 100 μL, 30 min), concentration 1.35 ppb",0.602
same,OD,"Ractopamine antibody; Group 2 (20 min pre-reaction; 100 μL, 30 min), concentration 4.05 ppb",0.323
same,OD450,"ciprofloxacin antibody [1]; ciprofloxacin 1 ppb, re-reaction 1 min, 6 times",0.863 and 0.813
same,OD450,"ciprofloxacin antibody [1]; ciprofloxacin 1 ppb, re-reaction time 5 min",1.21 and 1.189
same,OD450,"ciprofloxacin antibody [1]; ciprofloxacin 1 ppb, re-reaction time 10 min",1.517 and 1.488
same,OD450,"ciprofloxacin antibody [1]; ciprofloxacin 1 ppb, re-reaction time 20 min",1.884 and 1.874
same,OD450,"ciprofloxacin antibody [1]; ciprofloxacin 1 ppb, re-reaction time 30 min",2.036 and 1.989
same,OD450,"ciprofloxacin antibody [1]; ciprofloxacin 5 ppb, re-reaction 1 min, 6 times",0.412 and 0.372
same,OD450,"ciprofloxacin antibody [1]; ciprofloxacin 5 ppb, re-reaction time 5 min",0.706 and 0.664
same,OD450,"ciprofloxacin antibody [1]; ciprofloxacin 5 ppb, re-reaction time 10 min",1.003 and 0.984
same,OD450,"ciprofloxacin antibody [1]; ciprofloxacin 5 ppb, re-reaction time 20 min",1.342 and 1.343
same,OD450,"ciprofloxacin antibody [1]; ciprofloxacin 5 ppb, re-reaction time 30 min",1.501 and 1.499
same,OD450,"ciprofloxacin antibody [1]; ciprofloxacin 10 ppb, re-reaction 1 min, 6 times",0.302 and 0.332
same,OD450,"ciprofloxacin antibody [1]; ciprofloxacin 10 ppb, re-reaction time 5 min",0.565 and 0.485
same,OD450,"ciprofloxacin antibody [1]; ciprofloxacin 10 ppb, re-reaction time 10 min",0.894 and 0.749
same,OD450,"ciprofloxacin antibody [1]; ciprofloxacin 10 ppb, re-reaction time 20 min",1.204 and 1.101
same,OD450,"ciprofloxacin antibody [1]; ciprofloxacin 10 ppb, re-reaction time 30 min",1.269 and 1.182
same,IC50,ciprofloxacin antibody [1]; competitive reaction with solid phase antigen in a short time after pre-reaction,1 ppb
same,IC50,ciprofloxacin antibody [1]; long re-reaction time (before improvement),10 ppb
same,OD450,"ciprofloxacin antibody [2]; ciprofloxacin 1 ppb, pre-incubation time 5 min",0.337
same,OD450,"ciprofloxacin antibody [2]; ciprofloxacin 1 ppb, pre-incubation time 10 min",0.385 and 0.353
same,OD450,"ciprofloxacin antibody [2]; ciprofloxacin 1 ppb, pre-incubation time 15 min",0.399 and 0.401
same,OD450,"ciprofloxacin antibody [2]; ciprofloxacin 1 ppb, pre-incubation time 20 min",0.434 and 0.439
same,OD450,"ciprofloxacin antibody [2]; ciprofloxacin 5 ppb, pre-incubation time 5 min",0.17 and 0.169
same,OD450,"ciprofloxacin antibody [2]; ciprofloxacin 5 ppb, pre-incubation time 10 min",0.175 and 0.187
same,OD450,"ciprofloxacin antibody [2]; ciprofloxacin 5 ppb, pre-incubation time 15 min",0.193 and 0.206
same,OD450,"ciprofloxacin antibody [2]; ciprofloxacin 5 ppb, pre-incubation time 20 min",0.213 and 0.22
same,OD450,"ciprofloxacin antibody [2]; ciprofloxacin 10 ppb, pre-incubation time 5 min",0.15 and 0.133
same,OD450,"ciprofloxacin antibody [2]; ciprofloxacin 10 ppb, pre-incubation time 10 min",0.152 and 0.136
same,OD450,"ciprofloxacin antibody [2]; ciprofloxacin 10 ppb, pre-incubation time 15 min",0.153 and 0.149
same,OD450,"ciprofloxacin antibody [2]; ciprofloxacin 10 ppb, pre-incubation time 20 min",0.169 and 0.178
same,OD450,"ciprofloxacin antibody [3]; Group 1 (20 min pre-incubation, then 30 min on plate), ciprofloxacin 1 ppb",1.975
same,OD450,"ciprofloxacin antibody [3]; Group 1 (20 min pre-incubation, then 30 min on plate), ciprofloxacin 3 ppb",1.632
same,OD450,"ciprofloxacin antibody [3]; Group 1 (20 min pre-incubation, then 30 min on plate), ciprofloxacin 9 ppb",1.448
same,OD450,"ciprofloxacin antibody [3]; Group 1 (20 min pre-incubation, then 30 min on plate), ciprofloxacin 27 ppb",0.924
same,OD450,"ciprofloxacin antibody [3]; Group 1 (20 min pre-incubation, then 30 min on plate), ciprofloxacin 81 ppb",0.483
same,OD450,"ciprofloxacin antibody [3]; Group 2 (no pre-incubation, 30 min on plate), ciprofloxacin 1 ppb",1.904
same,OD450,"ciprofloxacin antibody [3]; Group 2 (no pre-incubation, 30 min on plate), ciprofloxacin 3 ppb",1.643
same,OD450,"ciprofloxacin antibody [3]; Group 2 (no pre-incubation, 30 min on plate), ciprofloxacin 9 ppb",1.203
same,OD450,"ciprofloxacin antibody [3]; Group 2 (no pre-incubation, 30 min on plate), ciprofloxacin 27 ppb",0.952
same,OD450,"ciprofloxacin antibody [3]; Group 2 (no pre-incubation, 30 min on plate), ciprofloxacin 81 ppb",0.523
